Test system: HCV 1b genotype
Assay: HCV Replicon assay (HCV 1b genotype)
Type: cell-based
Details: Hepatitis C virus; HCV 1b genotype replicon; Effective 50% inhibitory concentration; read-out: EC50
Experimental: An HCV Replicon assay was utilized in the present disclosure, and was prepared, conducted and validated as described in commonly owned PCT/US2006/022197 and in O'Boyle et al., Antimicrob. Agents Chemother., 49(4):1346-1353 (April 2005). Assay methods incorporating luciferase reporters have also been used as described (Apath.com).
HCV-neo replicon cells and replicon cells containing resistance substitutions in the NS5A region were used to test the currently described family of compounds. The compounds were determined to have differing degrees of reduced inhibitory activity on cells containing mutations vs. the corresponding inhibitory potency against wild-type cells. Thus, the compounds of the present disclosure can be effective in inhibiting the function of the HCV NS5A protein and are understood to be as effective in combinations as previously described in application PCT/US2006/022197 and commonly owned WO 04/014852. It should be understood that the compounds of the present disclosure can inhibit multiple genotypes of HCV. […] In one embodiment, compounds of the present disclosure are inhibitory versus 1a, 1b, 2a, 2b, 3a, 4a, and 5a genotypes. EC50 values against HCV 1b are as follows.

Row | Structure (SMILES) | EC50 [nM]
1 | CC[C@H](NC(=O)OC)C(=O)N1[C@@H]2C[C@@H]2C[C@H]1c1nc(Cl)c(-c2ccc(-c3ccc(-c4[nH]c([C@@H]5C[C@H]6C[C@H]6N5C(=O)[C@@H](NC(=O)OC)C5CCOCC5)nc4Cl)cc3)cc2)[nH]1 [Example V9] | 0.0027
2 | COC(=O)NC(C(=O)N1[C@@H]2C[C@@H]2C[C@H]1c1nc(-c2ccc(-c3ccc(-c4c[nH]c([C@@H]5C[C@H]6C[C@H]6N5C(=O)[C@@H](NC(=O)OC)[C@H]5CCCOC5)n4)cc3)cc2)c(Cl)[nH]1)[C@H]1CCCOC1 (stereo partly shown) [ZY6] | 0.0108

Same assay, conditions: Hepatitis C virus; HCV 1b genotype replicon; range class; read-out: EC50-Range

Row | Structure (SMILES) | EC50 [nM]
3 | COC(=O)N[C@H](C(=O)N1[C@@H]2C[C@@H]2C[C@H]1c1nc(-c2ccc(-c3ccc4c(ccc5[nH]c([C@@H]6C[C@H]7C[C@H]7N6C(=O)[C@@H](NC(=O)OC)C6CCOCC6)nc54)c3)cc2)c(Cl)[nH]1)C1CCOCC1 [DSTL-2] | 0.01 to 0.1
4 | COC(=O)N[C@H](C(=O)N1[C@@H]2C[C@@H]2C[C@H]1c1nc(-c2ccc(-c3ccc(-c4nc([C@@H]5C[C@H]6C[C@H]6N5C(=O)[C@@H](NC(=O)OC)C5CCOCC5)[nH]c4F)cc3)cc2)c[nH]1)C1CCOCC1 [DSTL-6] | 0.001 to 0.01
5 | COC(=O)N[C@H](C(=O)N1[C@@H]2C[C@@H]2C[C@H]1c1nc(-c2ccc(-c3ccc(-c4nc([C@@H]5C[C@H]6C[C@H]6N5C(=O)[C@@H](NC(=O)OC)C5CCOCC5)[nH]c4F)cc3)cc2)c(F)[nH]1)C1CCOCC1 [DSTL-7] | 0.001 to 0.01
6 | COC(=O)N[C@H](C(=O)N1[C@@H](C)CC[C@H]1c1nc(-c2ccc(-c3ccc(-c4nc([C@@H]5CC[C@H](C)N5C(=O)[C@@H](NC(=O)OC)C5CCOCC5)[nH]c4F)cc3)cc2)c[nH]1)C1CCOCC1 [DSTL-9] | 0.001 to 0.01
7 | COC(=O)N[C@H](C(=O)N1[C@@H](C)CC[C@H]1c1nc(-c2ccc(-c3ccc(-c4nc([C@@H]5CC[C@H](C)N5C(=O)[C@@H](NC(=O)OC)C5CCOCC5)[nH]c4F)cc3)cc2)c(F)[nH]1)C1CCOCC1 [DSTL-10] | 0.001 to 0.01
8 | COC(=O)N[C@H](C(=O)N1C2C[C@@H]2C[C@H]1c1nc(-c2ccc(-c3ccc(-c4nc([C@@H]5CC6C[C@H]6N5C(=O)[C@@H](NC(=O)OC)C5CCOCC5)[nH]c4C#N)cc3)cc2)c[nH]1)C1CCOCC1 (stereo partly shown) [DSTL-12] | 0.01 to 0.1
9 | CC[C@H](NC(=O)OC)C(=O)N1[C@@H]2C[C@@H]2C[C@H]1c1ncc(-c2ccc(-c3ccc(-c4[nH]c([C@@H]5C[C@H]6C[C@H]6N5C(=O)[C@H](CC)NC(=O)OC)nc4Cl)cc3)cc2)[nH]1 [Example V1] | 0.001 to 0.01
10 | CC[C@H](NC(=O)OC)C(=O)N1[C@@H]2C[C@@H]2C[C@H]1c1nc(Cl)c(-c2ccc(-c3ccc(-c4[nH]c([C@@H]5C[C@H]6C[C@H]6N5C(=O)[C@H](CC)NC(=O)OC)nc4Cl)cc3)cc2)[nH]1 [Example V3] | 0.001 to 0.01
11 | CC[C@H](NC(=O)OC)C(=O)N1[C@@H]2C[C@@H]2C[C@H]1c1nc(Cl)c(-c2ccc(-c3ccc(-c4[nH]c([C@@H]5C[C@H]6C[C@H]6N5C(=O)[C@@H](NC(=O)OC)C5CCOCC5)nc4Cl)cc3)cc2)[nH]1 [Example V9] | 0.001 to 0.01
12 | COC(=O)N[C@H](C(=O)N1[C@@H](C)CC[C@H]1c1ncc(-c2ccc(-c3ccc(-c4[nH]c([C@@H]5CC[C@H](C)N5C(=O)[C@@H](NC(=O)OC)C(C)C)nc4Cl)cc3)cc2)[nH]1)C(C)C [GW2] | 0.001 to 0.01
13 | COC(=O)N[C@H](C(=O)N1C[C@@H](C)C[C@H]1c1ncc(-c2ccc(-c3ccc(-c4[nH]c([C@@H]5C[C@H](C)CN5C(=O)[C@@H](NC(=O)OC)C(C)C)nc4Cl)cc3)cc2)[nH]1)C(C)C [GW3] | 0.001 to 0.01
14 | COC(=O)N[C@H](C(=O)N1C[C@@H](C)C[C@H]1c1ncc(-c2ccc(-c3ccc(-c4[nH]c([C@@H]5C[C@H](C)CN5C(=O)[C@@H](NC(=O)OC)C5CCOCC5)nc4Cl)cc3)cc2)[nH]1)C1CCOCC1 [GW4] | 0.01 to 0.1
15 | COC(=O)N[C@H](C(=O)N1C[C@@H](C)C[C@H]1c1nc(Cl)c(-c2ccc(-c3ccc(-c4[nH]c([C@@H]5C[C@H](C)CN5C(=O)[C@@H](NC(=O)OC)C(C)C)nc4Cl)cc3)cc2)[nH]1)C(C)C [GW8] | 0.001 to 0.01
16 | COC(=O)N[C@H](C(=O)N1CCC[C@H]1c1nc(-c2ccc(-c3ccc(-c4nc([C@@H]5CCCN5C(=O)[C@@H](NC(=O)OC)C(C)C)[nH]c4Br)cc3)cc2)c[nH]1)C(C)C [JLR-1] | 0.001 to 0.01
17 | COC(=O)N[C@H](C(=O)N1CCC[C@H]1c1nc(-c2ccc(-c3ccc(-c4nc([C@@H]5CCCN5C(=O)[C@@H](NC(=O)OC)C(C)C)[nH]c4I)cc3)cc2)c[nH]1)C(C)C [JLR-2] | 0.001 to 0.01
18 | COC(=O)N[C@H](C(=O)N1[C@@H](C)CC[C@H]1c1nc(-c2ccc(-c3ccc4c(ccc5[nH]c([C@@H]6CC[C@H](C)N6C(=O)[C@@H](NC(=O)OC)C6CCOCC6)nc54)c3)cc2)c(Cl)[nH]1)C1CCOCC1 [JLR-5] | 0.001 to 0.01
19 | COC(=O)NC(C(=O)N1[C@@H]2C[C@@H]2C[C@H]1c1nc(-c2ccc(-c3ccc(-c4[nH]c([C@@H]5C[C@H]6C[C@H]6N5C(=O)C(NC(=O)OC)[C@H]5C[C@@H](C)O[C@@H](C)C5)nc4Cl)cc3)cc2)c[nH]1)[C@H]1C[C@@H](C)O[C@@H](C)C1 (stereo partly shown) [OL6] | 0.001 to 0.01
20 | COC(=O)N[C@H](C(=O)N1CCC[C@H]1c1ncc(-c2ccc(-c3ccc(-c4[nH]c([C@@H]5CCCN5C(=O)[C@@H](NC(=O)OC)C(C)C)nc4C4CC4)cc3)cc2)[nH]1)C(C)C [OL7] | 0.001 to 0.01
21 | C=CCc1nc([C@@H]2CCCN2C(=O)[C@@H](NC(=O)OC)C(C)C)[nH]c1-c1ccc(-c2ccc(-c3cnc([C@@H]4CCCN4C(=O)[C@@H](NC(=O)OC)C(C)C)[nH]3)cc2)cc1 [OL15] | 0.001 to 0.01
22 | C=CCc1cc([C@@H]2CCCN2C(=O)[C@@H](NC(=O)OC)C2CCOCC2)[nH]c1-c1ccc(-c2ccc(-c3cnc([C@@H]4CCCN4C(=O)[C@@H](NC(=O)OC)C4CCOCC4)[nH]3)cc2)cc1 [OL16] | 0.01 to 0.1
23 | COC(=O)N[C@H](C(=O)N1CCC[C@H]1c1ncc(-c2ccc(-c3ccc(-c4[nH]c([C@@H]5CCCN5C(=O)[C@@H](NC(=O)OC)C(C)C)nc4-c4ccnn4C)cc3)cc2)[nH]1)C(C)C [OL19] | 0.01 to 0.1
24 | COC(=O)N[C@H](C(=O)N1[C@@H]2C[C@@H]2C[C@H]1c1nc(-c2ccc(-c3ccc(-c4nc([C@@H]5C[C@H]6C[C@H]6N5C(=O)[C@@H](NC(=O)OC)[C@@H]5CCCOC5)[nH]c4Cl)cc3)cc2)c(Cl)[nH]1)[C@@H]1CCCOC1 [ZY1, dimethyl(S,1S,1′S)-2,2′-((1R,1′R,3S,3′S,5R,5′R)-3,3′-(4,4′-(biphenyl-4,4′-diyl)bis(5-chloro-1H-imidazole-4,2-diyl))bis(2-azabicyclo[3.1.0]hexane-3,2-diyl))bis(2-oxo-1-((S)-tetrahydro-2H-pyran-3-yl)ethane-2,1-diyl)dicarbamate] | 0.001 to 0.01
25 | COC(=O)N[C@H](C(=O)N1[C@@H]2C[C@@H]2C[C@H]1c1nc(-c2ccc(-c3ccc(-c4nc([C@@H]5C[C@H]6C[C@H]6N5C(=O)[C@@H](NC(=O)OC)[C@H]5CCCOC5)[nH]c4Cl)cc3)cc2)c(Cl)[nH]1)[C@H]1CCCOC1 [ZY2, dimethyl(R,1S,1′S)-2,2′-((1R,1′R,3S,3′S,5R,5′R)-3,3′-(4,4′-(biphenyl-4,4′-diyl)bis(5-chloro-1H-imidazole-4,2-diyl))bis(2-azabicyclo[3.1.0]hexane-3,2-diyl))bis(2-oxo-1-((R)-tetrahydro-2H-pyran-3-yl)ethane-2,1-diyl)dicarbamate] | 0.001 to 0.01
26 | COC(=O)NC(C(=O)N1[C@@H]2C[C@@H]2C[C@H]1c1nc(-c2ccc(-c3ccc(-c4nc([C@@H]5C[C@H]6C[C@H]6N5C(=O)[C@H](NC(=O)OC)[C@H]5CCCOC5)[nH]c4Cl)cc3)cc2)c(Cl)[nH]1)[C@@H]1CCCOC1 (stereo partly drawn) [ZY3, dimethyl(R,1R,1′R)-2,2′-((1R,1′R,3S,3′S,5R,5′R)-3,3′-(4,4′-(biphenyl-4,4′-diyl)bis(5-chloro-1H-imidazole-4,2-diyl))bis(2-azabicyclo[3.1.0]hexane-3,2-diyl))bis(2-oxo-1-((R)-tetrahydro-2H-pyran-3-yl)ethane-2,1-diyl)dicarbamate] | 0.001 to 0.01
27 | COC(=O)N[C@@H](C(=O)N1[C@@H]2C[C@@H]2C[C@H]1c1nc(-c2ccc(-c3ccc(-c4nc([C@@H]5C[C@H]6C[C@H]6N5C(=O)[C@H](NC(=O)OC)[C@@H]5CCCOC5)[nH]c4Cl)cc3)cc2)c(Cl)[nH]1)[C@@H]1CCCOC1 [ZY4, dimethyl(S,1R,1′R)-2,2′-((1R,1′R,3S,3′S,5R,5′R)-3,3′-(4,4′-(biphenyl-4,4′-diyl)bis(5-chloro-1H-imidazole-4,2-diyl))bis(2-azabicyclo[3.1.0]hexane-3,2-diyl))bis(2-oxo-1-((S)-tetrahydro-2H-pyran-3-yl)ethane-2,1-diyl)dicarbamate] | 0.001 to 0.01
28 | COC(=O)N[C@@H](C(=O)N1[C@@H]2C[C@@H]2C[C@H]1c1nc(-c2ccc(-c3ccc(-c4nc([C@@H]5C[C@H]6C[C@H]6N5C(=O)[C@H](NC(=O)OC)[C@@H]5CCCOC5)[nH]c4Cl)cc3)cc2)c[nH]1)[C@H]1CCCOC1 [ZY5] | 0.001 to 0.01
29 | COC(=O)NC(C(=O)N1[C@@H]2C[C@@H]2C[C@H]1c1nc(-c2ccc(-c3ccc(-c4c[nH]c([C@@H]5C[C@H]6C[C@H]6N5C(=O)[C@@H](NC(=O)OC)[C@H]5CCCOC5)n4)cc3)cc2)c(Cl)[nH]1)[C@H]1CCCOC1 (stereo partly shown) [ZY6] | 0.01 to 0.1
30 | COCC[C@H](NC(=O)OC)C(=O)N1[C@@H]2C[C@@H]2C[C@H]1c1nc(-c2ccc(-c3ccc(-c4nc([C@@H]5C[C@H]6C[C@H]6N5C(=O)[C@H](CCOC)NC(=O)OC)[nH]c4Cl)cc3)cc2)c(Cl)[nH]1 [ZY7, dimethyl (2S,2′S)-1,1′-((1R,1′R,3S,3′S,5R,5′R)-3,3′-(4,4′-(biphenyl-4,4′-diyl)bis(5-chloro-1H-imidazole-4,2-diyl))bis(2-azabicyclo[3.1.0]hexane-3,2-diyl))bis(4-methoxy-1-oxobutane-2,1-diyl)dicarbamate] | 0.001 to 0.01
31 | COCC[C@H](NC(=O)OC)C(=O)N1[C@@H]2C[C@@H]2C[C@H]1c1nc(-c2ccc(-c3ccc(-c4nc([C@@H]5C[C@H]6C[C@H]6N5C(=O)[C@H](CCOC)NC(=O)OC)[nH]c4Cl)cc3)cc2)c[nH]1 [ZY8] | 0.001 to 0.01
